Reference: ChEMBL document CHEMBL1287752, “Changes in flavonoid content and tyrosinase inhibitory activity in kenaf leaf extract after far-infrared treatment” (Bioorg Med Chem Lett, 2010)

What was measured:
[1] = biological target: T1, Tyrosinase (Agaricus bisporus, UniProt O42713); test: Inhibition of mushroom tyrosinase after 20 mins by spectrophotometric analysis
T1 sequence (O42713 whole entry): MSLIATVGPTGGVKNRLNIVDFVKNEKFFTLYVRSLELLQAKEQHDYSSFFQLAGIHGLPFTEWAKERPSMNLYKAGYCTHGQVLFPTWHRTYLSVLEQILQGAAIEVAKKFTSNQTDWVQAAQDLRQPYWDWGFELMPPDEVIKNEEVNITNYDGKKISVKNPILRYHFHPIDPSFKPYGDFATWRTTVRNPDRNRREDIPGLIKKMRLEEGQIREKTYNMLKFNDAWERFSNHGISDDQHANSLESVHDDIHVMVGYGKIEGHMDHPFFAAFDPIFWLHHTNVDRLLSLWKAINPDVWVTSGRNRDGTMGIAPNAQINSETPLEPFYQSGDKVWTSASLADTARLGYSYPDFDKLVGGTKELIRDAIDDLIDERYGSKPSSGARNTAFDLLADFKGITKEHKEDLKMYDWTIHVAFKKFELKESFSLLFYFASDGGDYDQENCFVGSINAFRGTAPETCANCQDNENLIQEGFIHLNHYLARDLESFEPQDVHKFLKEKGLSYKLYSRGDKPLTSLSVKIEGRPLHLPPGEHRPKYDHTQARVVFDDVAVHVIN

[2] = biological target: T2, Tyrosinase (Agaricus bisporus) (UniProt O42713); settings: 400 uM
T2 sequence (whole entry): T1 sequence (O42713 whole entry)
Description: Inhibition of mushroom tyrosinase at 400 uM after 20 mins by spectrophotometric analysis

| IC50 [1] | inhibition [2] | SMILES |
| --- | --- | --- |
| > 400 µM | < 39.1% | C[C@@H]1O[C@@H](Oc2cc(O)c3c(=O)c(O)c(-c4ccc(O)cc4)oc3c2)[C@H](O)[C@H](O)[C@H]1O [ALPHA-RHAMNOISOROBIN] |
| 171 µM | – | O=c1c(O)c(-c2ccc(O)cc2)oc2cc(O)cc(O)c12 [KAEMPFEROL] |
